Measured values: patent US20240300999A1, “PEPTIDES FOR REGULATING GLUCOSE” (priority 2021, published 2024)

Tests used:
L6 myotubes [1] = assay: Glucose uptake (2-deoxy-D-[3H]glucose) screening assay in cultured L6 myotubes; assay type: cell-based, rat; settings: for Glucose Uptake (fold activity to control), Insulin (−) / Glucose Uptake (fold activity to control), Insulin (+): synthetic peptides 1 ng/mL (each), mean ± SEM; for Concentration at which inhibition of glucose uptake was exhibited / Concentration at which stimulation of glucose uptake was exhibited: L6 myotubes; for Bioactivity: Table 4, identified peptides
Description: Screening assays were performed as follows. L6 rat myoblasts (courtesy of Dr. Amira Klip, Hospital for Sick Children, Toronto, Canada) were grown and maintained in monolayer culture in alpha-MEM containing 2% (v/v) fetal bovine serum in an atmosphere of 5% CO2 at 37° C. L6 myoblasts were plated in 12-well or 24-well plates at 20,000 cells/mL, replacing the media every two days until complete differentiation into myotubes (7 days post-plating).
Once completely differentiated, myotubes were serum deprived (alpha-MEM with 0% FBS) for 3 h and treated or not with SPF (1 ng/ml or 1 μg/mL) for 2 h without (insulin-independent) or with 100 nM insulin (insulin-dependent) during the last 45 min. Cells were rinsed once with glucose-free HEPES-buffered saline solution pH 7.4 (140 mM NaCl, 20 mM HEPES/Na, 5 mM KCl, 2.5 mM MgSO4 and 1 mM CaCl2)), and were subsequently incubated for 8 min with 10 µM 2-deoxy-D-glucose containing 0.3 μCi/mL 2-deoxy-D-[3H]glucose in the same buffer. After incubation in transport medium, cells were rinsed three times with ice-cold saline solution (0.9% NaCl) and stored at −20° C. Cells were disrupted by adding 1 mL of 50 mM NaOH to plates with agitation for 15 min. Cell-incorporated radioactivity was measured using a Perkin Elmer Tricarb liquid scintillation counter. Protein concentrations were determined by the micro bicinchoninic acid method (BCA) using a bovine serum albumin (BSA) standard curve (ThermoScientific, Waltham, Mass, USA), and the results expressed in pM/min/mg protein, calculated using the following equation: […]
where DPM (sample) is the number of disintegrations per minute (DPM) measured for the tested sample, C is the concentration of protein (mg), DPM (2DG) is the number of DPM measure for the solution of radioactive 2-deoxy-D-[3H] glucose for 1 pmol and equal to 72.2025 dpm/pmol, and t is the incubation time with 2-deoxy-D-[3H] glucose, and reported in terms of relative activity to the control sample in the absence of insulin. Statistical analysis was performed in Microsoft Excel using a two-tailed Student's t-test assuming equal variance.

L6 myotubes [2] = assay: as above; assay type: cell-based, rat; settings: for Glucose Uptake (fold activity to control), Insulin (−) / Glucose Uptake (fold activity to control), Insulin (+): synthetic peptides 1 pg/mL (each), mean ± SEM
[3] = 1 ng/mL, insulin state not distinguished (presence or absence)
[4] = 1 pg/mL, insulin state not distinguished

Substance	Effect on glucose uptake (in words) (L6 myotubes [1]; [3])	Glucose Uptake (fold activity to control), Insulin (−) (L6 myotubes [1]; absence of insulin)	Glucose Uptake (fold activity to control), Insulin (+) (L6 myotubes [1]; presence of insulin)	Effect on glucose uptake (in words) (L6 myotubes [1]; 1 ng/mL (each peptide), absence of insulin)	Effect on glucose uptake (in words) (L6 myotubes [1]; 1 ng/mL, presence of insulin)	Concentration at which inhibition of glucose uptake was exhibited (L6 myotubes [1]) [pM]	Concentration at which stimulation of glucose uptake was exhibited (L6 myotubes [1]) [nM]	Bioactivity (L6 myotubes [1])	Effect on glucose uptake (in words) (L6 myotubes [2]; 1 pg/mL (each peptide), absence of insulin)	Effect on glucose uptake (in words) (L6 myotubes [2]; [4])	Effect on glucose uptake (in words) (L6 myotubes [2]; 1 pg/mL, presence of insulin)	Glucose Uptake (fold activity to control), Insulin (−) (L6 myotubes [2]; absence of insulin)	Glucose Uptake (fold activity to control), Insulin (+) (L6 myotubes [2]; presence of insulin)
Ile-Ala-Ile	No significant effect	1.04 ± 0.04 fold activity to control	1.80 ± 0.09 fold activity to control	–	–	–	–	–	–	–	–	–	–
Ile-Ala-Tyr (IAY) [chemically synthesized tripeptide, Ile-X-Tyr motif]	stimulating effect	1.13 ± 0.05 fold activity to control	1.97 ± 0.08 fold activity to control	stimulated glucose uptake	stimulated glucose uptake	2.7	2.7	Modulates glucose uptake	inhibited glucose uptake	inhibiting effect	inhibited glucose uptake	0.86 ± 0.04 fold activity to control	1.55 ± 0.04 fold activity to control
Ile-Gly-Ile	No significant effect	1.04 ± 0.04 fold activity to control	1.75 ± 0.17 fold activity to control	–	–	–	–	–	–	–	–	–	–
Ile-Gly-Tyr (IGY) [chemically synthesized tripeptide, Ile-X-Tyr motif]	stimulating effect	1.05 ± 0.06 fold activity to control	2.02 ± 0.05 fold activity to control	–	stimulated glucose uptake	2.8	2.8	Modulates glucose uptake	–	inhibiting effect	inhibited glucose uptake	0.98 ± 0.06 fold activity to control	1.49 ± 0.10 fold activity to control
Ile-Ile-Ile	No significant effect	1.00 ± 0.04 fold activity to control	2.02 ± 0.27 fold activity to control	–	–	–	–	–	–	–	–	–	–
Ile-Ile-Tyr	did not significantly affect	1.06 ± 0.03 fold activity to control	1.88 ± 0.11 fold activity to control	–	–	–	–	–	–	–	–	0.97 ± 0.04 fold activity to control	1.61 ± 0.07 fold activity to control
